PMC9045377, “CpxA Phosphatase Inhibitor Activates CpxRA and Is a Potential Treatment for Uropathogenic Escherichia coli in a Murine Model of Infection” (Microbiology Spectrum, 2022)
Entries after “also recorded” stand apart in the source; their conditions may differ. Structures can show the parent of a compound that is named as a salt.

Experiments:
UPEC strain CFT073 [1] = format: in vivo, Escherichia coli (in female CBA/J mice); details: compound 6 trial
Protocol: Four groups of eight female CBA/J mice were transurethrally inoculated with a target dose of ∼10^8 CFU of either CFT073 or CFT073ΔcpxA::cat. One group was treated with ciprofloxacin (2.5 mg/kg/dose dissolved in sterile distilled water) s.c. 12, 24, 36, 48, and 60 h after inoculation with CFT073 as described ([31]). The untreated CFT073 and CFT073ΔcpxA::cat inoculated groups were given the vehicle control s.c. at 12, 24, 36, 48, and 60 h after inoculation. The compound 6 treated group were given the drug (100 mg/kg) s.c. at 12, 36, and 60 h after inoculation with CFT073 and received the vehicle control s.c. at 24 and 48 h. The animals were sacrificed 4 h after the last treatment (64 h postinoculation) and CFU per milliliter or CFU per gram of tissue was determined in the urine, bladder, and kidneys.
Animal experiments were conducted according to the guidelines of the University of Michigan Institutional Animal Care and Use Committee. For the animal infection experiments, bacterial strains were cultured at 37°C in LB medium overnight with shaking ([30]). Female CBA/J mice (Jackson Laboratories, Bar Harbor, ME) were inoculated transurethrally with a target dose of ∼10^8 CFU of CFT073 or CFT073ΔcpxA::cat. Mice were subsequently treated 12 h later either with the vehicle, ciprofloxacin hydrochloride (PanReac AppliChem ITW Reagents; Jade Scientific), compound 1, compound 6, or compound 26 as described in Results and euthanized 4 h after the last treatment. Bacterial loads of each strain were calculated from the urine, bladder, and kidneys of mice as previously described; the limits of detection for these assays were 100 CFU/mL or 100 CFU/g of urine and tissue, respectively ([33]). Values of 50 CFU/mL or 50 CFU/g were assigned to specimens whose yields were below the limit of detection.
Due to the extreme skewness of the data, natural log transformation was used before the data were analyzed statistically. Descriptive statistics were calculated for all of the log-transformed variables. Statistical comparisons were done using analysis of variance (ANOVA) with follow-up pairwise tests adjusted for multiple comparisons using the Tukey procedure.

UPEC strain CFT073 [2] = format: in vivo, Escherichia coli (in female CBA/J mice)
[3] = Toxicity / clinical signs in mice; format: in vivo, female CBA/J mice; details: 100 mg/kg s.c. twice a day for 3 days
Protocol: We tested our initial hit, compound 1 ([31]) (Fig. 1), for toxicity in a murine model using criteria described in Materials and Methods. […] To test compound 1 for efficacy, female CBA/J mice were transurethrally inoculated with ∼1 × 10^8 CFU of UPEC strain CFT073; 12 h later, mice were treated with 100 mg/kg compound 1 (n = 10) or the vehicle control (n = 5) s.c. twice a day for 3 days and then sacrificed 4 h after the last dose. No effect was seen on the recovery of E. coli CFT073 in the urine, bladder, or kidneys (see Fig. S1 in the supplemental material). As compound 1 lacked efficacy, we aimed to improve the scaffold to enhance potency and eliminate the nitro group liability ([32]).
We developed a high-performance liquid chromatography-tandem mass spectrometry (HPLC-MS/MS) assay to measure compound 6 with a lower limit of quantification of 1 ng/mL. Single-dose PK parameters of compound 6 were determined in female CBA/J mice (n = 15) given 100 mg/kg s.c. dissolved in the vehicle. Blood was obtained from groups of 3 mice 1, 2, 4, 8, and 24 h postinjection.
Animal experiments were conducted according to the guidelines of the Indiana University School of Medicine Institutional Animal Care and Use Committee by the IU Simon Comprehensive Cancer Center In Vivo Therapeutics Core, a component of the Indiana Clinical Translational Science Institute. For the pilot toxicity study with compound 1, 4- to 6-week-old CBA/J female mice were obtained from Jackson Laboratory (Bar Harbor, ME) and were treated with compound 1 or the vehicle control twice a day for 3 days as described in the results. […] Toxicity was determined by the following criteria: deteriorating health-hunched posture, lack of grooming, failure to thrive, failure to eat and drink for >48 h, rapid loss of 15 to 20% body weight, inactivity with hunched posture, loss of righting reflex and inability to maintain upright posture, loss of general body condition with spine becoming visible, and dehiscence of wounds and/or evidence of infection at injection sites not responsive to veterinary treatment.

CpxRA = system: CpxRA; parameters: method as in PMID 31104993; details: β-galactosidase reporter assay in E. coli; read-out: mean 50% effective concentration (EC50), CpxRA activation; cited from earlier work

O=C(O)c1cn(C2CC2)c2cc(N3CCNCC3)c(F)cc2c1=O [ciprofloxacin, ciprofloxacin hydrochloride, reference compound]
CFU of CFT073 recovered in urine vs CFT073-inoculated vehicle control (UPEC strain CFT073 [1]; 8 mice/group, compound 6 100 mg/kg s.c. at 12, 36, 60 h, ciprofloxacin 2.5 mg/kg/dose s.c. at 12, 24, 36, 48, 60 h, sacrifice 64 h): significantly reduced
CFU of CFT073 recovered in kidneys vs CFT073-inoculated vehicle control (UPEC strain CFT073 [1]; same regimens): significantly reduced
recoverable CFU in urine vs CFT073-inoculated vehicle-treated controls (UPEC strain CFT073 [2]; compound 26 trial, 8 mice/group, compound 26 100 mg/kg s.c. at 12, 36, 60 h, ciprofloxacin 2.5 mg/kg/dose s.c. at 12, 24, 36, 48, 60 h, sacrifice 64 h): significantly lower
recoverable CFU in kidneys vs CFT073-inoculated vehicle-treated controls (UPEC strain CFT073 [2]; compound 26 trial, same regimens): significantly lower

NC1CCCc2c1[nH]c1ccc([N+](=O)[O-])cc21 (centres unmarked) [compound 1, 6-nitro-2,3,4,9-tetrahydro-1H-carbazol-1-amine]
duration of decreased activity after each dose [3]: 20 min
toxicity ([3]; n = 3, observed 14 days): exhibited no toxicity
EC50 (CpxRA): 24.8 µM
recovery of E. coli CFT073 in the urine, bladder, or kidneys vs vehicle control (UPEC strain CFT073 [2]; 100 mg/kg s.c. twice a day for 3 days from 12 h after ~1 × 10^8 CFU transurethral, sacrificed 4 h after last dose): no significant; also recorded: No effect
